# Measurements from patent publication US20250147039A1, “Compounds for complexation of rare earth elements and/or s-, p-, d- block metals, their coordination compounds, peptide conjugates, method of their preparation and use thereof” (USTAV ORGANICKE CHEMIE A BIOCHEMIE AV CR V.V.I., priority 2021, published 2025).
# Key:
# [1] = Formation of 1,5-cz-[M(Lig)] from Lig and M^III ions (metal dependent click-zip) (Charts 4, 5); assay type: physicochemical; details: MOPS/NaOH buffer pH 7.0, TD728, TD827 in 50% i-PrOH; for conversion to 1,5-cz-[M(Lig)], Y^III: TD714 sum of two diastereoisomers
# [2] = Formation of 1,5-cz-[Ln(Lig)] from Lig and Ln^III ions (metal dependent click-zip), MOPS/NaOH buffer pH 7.0, analytical HPLC (Charts 1, 2)
# [3] = after 1 week at 80° C., MOPS/NaOH buffer pH 7.0
# [4] = after 1 hour at 80° C., MOPS/NaOH buffer pH 7.0
# [5] = after 1 week at 80° C., 50% i-PrOH in aq. MOPS/NaOH Buffer pH 7.0
# [6] = after 1 hour at 80° C., 50% i-PrOH in aq. MOPS/NaOH Buffer pH 7.0
compound,measurement,setting,value
C#Cc1cccc(CN2CCN(CC(N)=O)CCN(Cc3cc(-c4ccccc4)cc(CN=[N+]=[N-])n3)CCN(CC(N)=O)CC2)n1 [TD779],"conversion to 1,5-cz-[M(Lig)], Sc^III",[1]; 1 week at 80° C.,0%
same,"conversion to 1,5-cz-[M(Lig)], Y^III",[1]; 1 week at 80° C.,0%
same,"conversion to 1,5-cz-[M(Lig)], Sc^III",[1]; 1 hour at 80° C.,0%
same,"conversion to 1,5-cz-[M(Lig)], Y^III",[1]; 1 hour at 80° C.,4%
same,"conversion to 1,5-cz-[Ln(Lig)], Ce^III",[2]; [3],0%
same,"conversion to 1,5-cz-[Ln(Lig)], Ce^III",[2]; [4],0%
same,"conversion to 1,5-cz-[Ln(Lig)], Dy^III",[2]; [3],0%
same,"conversion to 1,5-cz-[Ln(Lig)], Dy^III",[2]; [4],8%
same,"conversion to 1,5-cz-[Ln(Lig)], Er^III",[2]; [3],0%
same,"conversion to 1,5-cz-[Ln(Lig)], Er^III",[2]; [4],12%
same,"conversion to 1,5-cz-[Ln(Lig)], Eu^III",[2]; [3],0%
same,"conversion to 1,5-cz-[Ln(Lig)], Eu^III",[2]; [4],2%
same,"conversion to 1,5-cz-[Ln(Lig)], Gd^III",[2]; [3],0%
same,"conversion to 1,5-cz-[Ln(Lig)], Gd^III",[2]; [4],3%
same,"conversion to 1,5-cz-[Ln(Lig)], Ho^III",[2]; [3],0%
same,"conversion to 1,5-cz-[Ln(Lig)], Ho^III",[2]; [4],10%
same,"conversion to 1,5-cz-[Ln(Lig)], La^III",[2]; [3],0%
same,"conversion to 1,5-cz-[Ln(Lig)], La^III",[2]; [4],0%
same,"conversion to 1,5-cz-[Ln(Lig)], Lu^III",[2]; [3],0%
same,"conversion to 1,5-cz-[Ln(Lig)], Lu^III",[2]; [4],5%
same,"conversion to 1,5-cz-[Ln(Lig)], Nd^III",[2]; [3],0%
same,"conversion to 1,5-cz-[Ln(Lig)], Nd^III",[2]; [4],0%
same,"conversion to 1,5-cz-[Ln(Lig)], Pr^III",[2]; [3],0%
same,"conversion to 1,5-cz-[Ln(Lig)], Pr^III",[2]; [4],0%
same,"conversion to 1,5-cz-[Ln(Lig)], Sm^III",[2]; [3],0%
same,"conversion to 1,5-cz-[Ln(Lig)], Sm^III",[2]; [4],1%
same,"conversion to 1,5-cz-[Ln(Lig)], Tb^III",[2]; [3],0%
same,"conversion to 1,5-cz-[Ln(Lig)], Tb^III",[2]; [4],6%
same,"conversion to 1,5-cz-[Ln(Lig)], Tm^III",[2]; [3],0%
same,"conversion to 1,5-cz-[Ln(Lig)], Tm^III",[2]; [4],9%
same,"conversion to 1,5-cz-[Ln(Lig)], Yb^III",[2]; [3],0%
same,"conversion to 1,5-cz-[Ln(Lig)], Yb^III",[2]; [4],9%
C#Cc1cccc(CN2CCN(CCC(=O)O)CCN(Cc3cccc(CN=[N+]=[N-])n3)CCN(CCC(=O)O)CC2)n1 [TD801],"conversion to 1,5-cz-[M(Lig)], Sc^III",[1]; 1 week at 80° C.,0%
same,"conversion to 1,5-cz-[M(Lig)], Y^III",[1]; 1 week at 80° C.,0%
same,"conversion to 1,5-cz-[M(Lig)], Sc^III",[1]; 1 hour at 80° C.,0%
same,"conversion to 1,5-cz-[M(Lig)], Y^III",[1]; 1 hour at 80° C.,0%
same,"conversion to 1,5-cz-[Ln(Lig)], Ce^III",[2]; [3],0%
same,"conversion to 1,5-cz-[Ln(Lig)], Ce^III",[2]; [4],0%
same,"conversion to 1,5-cz-[Ln(Lig)], Dy^III",[2]; [3],0%
same,"conversion to 1,5-cz-[Ln(Lig)], Dy^III",[2]; [4],0%
same,"conversion to 1,5-cz-[Ln(Lig)], Er^III",[2]; [3],0%
same,"conversion to 1,5-cz-[Ln(Lig)], Er^III",[2]; [4],0%
same,"conversion to 1,5-cz-[Ln(Lig)], Eu^III",[2]; [3],0%
same,"conversion to 1,5-cz-[Ln(Lig)], Eu^III",[2]; [4],0%
same,"conversion to 1,5-cz-[Ln(Lig)], Gd^III",[2]; [3],0%
same,"conversion to 1,5-cz-[Ln(Lig)], Gd^III",[2]; [4],0%
same,"conversion to 1,5-cz-[Ln(Lig)], Ho^III",[2]; [3],0%
same,"conversion to 1,5-cz-[Ln(Lig)], Ho^III",[2]; [4],0%
same,"conversion to 1,5-cz-[Ln(Lig)], La^III",[2]; [3],0%
same,"conversion to 1,5-cz-[Ln(Lig)], La^III",[2]; [4],0%
same,"conversion to 1,5-cz-[Ln(Lig)], Lu^III",[2]; [3],0%
same,"conversion to 1,5-cz-[Ln(Lig)], Lu^III",[2]; [4],0%
same,"conversion to 1,5-cz-[Ln(Lig)], Nd^III",[2]; [3],0%
same,"conversion to 1,5-cz-[Ln(Lig)], Nd^III",[2]; [4],0%
same,"conversion to 1,5-cz-[Ln(Lig)], Pr^III",[2]; [3],0%
same,"conversion to 1,5-cz-[Ln(Lig)], Pr^III",[2]; [4],0%
same,"conversion to 1,5-cz-[Ln(Lig)], Sm^III",[2]; [3],0%
same,"conversion to 1,5-cz-[Ln(Lig)], Sm^III",[2]; [4],0%
same,"conversion to 1,5-cz-[Ln(Lig)], Tb^III",[2]; [3],0%
same,"conversion to 1,5-cz-[Ln(Lig)], Tb^III",[2]; [4],0%
same,"conversion to 1,5-cz-[Ln(Lig)], Tm^III",[2]; [3],0%
same,"conversion to 1,5-cz-[Ln(Lig)], Tm^III",[2]; [4],0%
same,"conversion to 1,5-cz-[Ln(Lig)], Yb^III",[2]; [3],0%
same,"conversion to 1,5-cz-[Ln(Lig)], Yb^III",[2]; [4],0%
C#Cc1cccc(CN2CCN(CC(=O)O)CCN(Cc3cc(C#C[Si](C(C)C)(C(C)C)C(C)C)cc(CN=[N+]=[N-])n3)CCN(CC(=O)O)CC2)n1 [TD827],"conversion to 1,5-cz-[M(Lig)], Sc^III",[1]; 1 week at 80° C.,55%
same,"conversion to 1,5-cz-[M(Lig)], Y^III",[1]; 1 week at 80° C.,96%
same,"conversion to 1,5-cz-[M(Lig)], Sc^III",[1]; 1 hour at 80° C.,2%
same,"conversion to 1,5-cz-[M(Lig)], Y^III",[1]; 1 hour at 80° C.,42%
same,"conversion to 1,5-cz-[Ln(Lig)], Ce^III",[2]; [5],22%
same,"conversion to 1,5-cz-[Ln(Lig)], Ce^III",[2]; [6],2%
same,"conversion to 1,5-cz-[Ln(Lig)], Dy^III",[2]; [5],96%
same,"conversion to 1,5-cz-[Ln(Lig)], Dy^III",[2]; [6],30%
same,"conversion to 1,5-cz-[Ln(Lig)], Er^III",[2]; [5],96%
same,"conversion to 1,5-cz-[Ln(Lig)], Er^III",[2]; [6],56%
same,"conversion to 1,5-cz-[Ln(Lig)], Eu^III",[2]; [5],92%
same,"conversion to 1,5-cz-[Ln(Lig)], Eu^III",[2]; [6],9%
same,"conversion to 1,5-cz-[Ln(Lig)], Gd^III",[2]; [5],93%
same,"conversion to 1,5-cz-[Ln(Lig)], Gd^III",[2]; [6],11%
same,"conversion to 1,5-cz-[Ln(Lig)], Ho^III",[2]; [5],96%
same,"conversion to 1,5-cz-[Ln(Lig)], Ho^III",[2]; [6],43%
same,"conversion to 1,5-cz-[Ln(Lig)], La^III",[2]; [5],46%
same,"conversion to 1,5-cz-[Ln(Lig)], La^III",[2]; [6],1%
same,"conversion to 1,5-cz-[Ln(Lig)], Lu^III",[2]; [5],97%
same,"conversion to 1,5-cz-[Ln(Lig)], Lu^III",[2]; [6],77%
same,"conversion to 1,5-cz-[Ln(Lig)], Nd^III",[2]; [5],84%
same,"conversion to 1,5-cz-[Ln(Lig)], Nd^III",[2]; [6],3%
same,"conversion to 1,5-cz-[Ln(Lig)], Pr^III",[2]; [5],79%
same,"conversion to 1,5-cz-[Ln(Lig)], Pr^III",[2]; [6],2%
same,"conversion to 1,5-cz-[Ln(Lig)], Sm^III",[2]; [5],91%
same,"conversion to 1,5-cz-[Ln(Lig)], Sm^III",[2]; [6],7%
same,"conversion to 1,5-cz-[Ln(Lig)], Tb^III",[2]; [5],95%
same,"conversion to 1,5-cz-[Ln(Lig)], Tb^III",[2]; [6],21%
same,"conversion to 1,5-cz-[Ln(Lig)], Tm^III",[2]; [5],97%
same,"conversion to 1,5-cz-[Ln(Lig)], Tm^III",[2]; [6],68%
same,"conversion to 1,5-cz-[Ln(Lig)], Yb^III",[2]; [5],97%
same,"conversion to 1,5-cz-[Ln(Lig)], Yb^III",[2]; [6],75%
